Reference: a melting point compilation (Tetko et al.; mined from patent text by program, amines drawn as free bases though some values may be those of a salt)

Compound	melting point [°C]
CC(C)c1ccc(OCC(=O)N2C(=O)OC[C@H]2Cc2ccccc2)cc1	104 to 105
C=CC1(C(=O)c2ccc(Cl)cc2)C=CC=CC1Cl (stereo unspecified)	120 to 122
CC12C=CC(O)CC1=CCC1C2CCC2(C)C(=O)CCC12 (stereo unspecified)	138 to 140
ClCSc1n[nH]c(C(c2ccccc2)(c2ccccc2)c2ccccc2)n1	121 to 122
COC(=O)c1cccc(-c2cccc(Oc3ccc(Cl)c(Cl)c3)n2)c1	133 to 134
CN1CCC2(C)c3cc(O)cc([N+](=O)[O-])c3N(C)C12 (stereo unspecified)	170 to 171
CCOC(=O)/C=C/C1N(C(C)C)C(=O)c2ccccc2C1(O)c1ccc(F)cc1OC (stereo unspecified)	178 to 179
CCOC(=O)c1oc(-c2ccc(Cl)cc2)cc(=O)c1Br	146 to 149
O=C(C[C@@H](O)C(F)(F)F)N[C@H]1CC[C@H](CCN2CCC(c3cccc4c3CCO4)CC2)CC1	189
Cc1cccc2c(=O)[nH]c(CCCN3CCC[C@@H]3CO)cc12	150 to 151
COc1ccc(-c2[nH]nc3c2CCc2ccccc2-3)cc1	161 to 163
CC(=O)CC(=O)NC1=Nc2ccc(Cl)cc2C(c2ccccc2)=NCC1	158 to 159
Clc1ccc(NN=Cc2cccs2)cc1	137
CCCc1c(OCCCSc2ccc3c(=O)cc(C(=O)O)[nH]c3c2CCC)ccc(C(C)=O)c1O	192 to 194
O=C1NC(=O)c2c(Sc3ccc([N+](=O)[O-])cc3)c(Sc3ccc([N+](=O)[O-])cc3)c(Sc3ccc([N+](=O)[O-])cc3)c(Sc3ccc([N+](=O)[O-])cc3)c21	297 to 301
CCOC(=O)NCCOC(=O)COc1cc(Oc2ccc(C(F)(F)F)cc2Cl)ccc1[N+](=O)[O-]	94 to 95
O=CNC1(c2ccccc2)CCN(Cc2ccccc2)CC1	140
O=C(CCl)Nc1csc(NC(=O)CCl)n1	188 to 192
COc1ccc2cc(-c3ncn[nH]3)ccc2n1	198 to 200

Compound	melting point [°C]
Cn1nc(-c2ccc(OC3CCN(C4CCCC4)CC3)cc2)ccc1=O	129 to 132
Cc1cc(Cl)cc(C(=O)c2[nH]c(=O)[nH]c(=O)c2C(C)C)c1	254 to 255
N#Cc1ccccc1NC(=O)c1snc(Cl)c1Cl	191 to 193
CC(C)(C)c1cn(N=Cc2cccnc2)c(=O)[nH]1	255 to 256
COc1nc(OC)c2cc(CBr)ccc2n1	138 to 143
CCOc1nc2cccc(C(=O)O)c2n1Cc1ccc(-c2ccccc2-c2nnnn2C(c2ccccc2)(c2ccccc2)c2ccccc2)cc1	168 to 170
CC(=O)Nc1nc(O)c2cc(C=Cc3ccc(C(=O)OC(C)=O)cc3)cnc2n1	> 300
Cn1ccc(=O)c2cc(F)ccc21	88 to 89
COC1CC2(C)C(CCC3C4CCC(C(C)=O)C4(C)CC(=O)C32)CC1O (stereo unspecified)	163 to 164
COc1cc2c(Nc3ccc(Sc4nccn4C)c(Cl)c3)c(C#N)cnc2cc1-c1csc(CN2CCN(C)CC2)c1	162 to 164
CNC(=C[N+](=O)[O-])NCCSCc1csc(CO)n1	131 to 132
CC(Br)=C(Br)CC(O)(Cn1cncn1)C1(Cl)CC1 (stereo unspecified)	55 to 56
Cc1ccc(-c2ccc3c(c2)C=C(C(=O)Nc2ccc(CN(C)C4CCOCC4)cc2)CCC3)cc1	161 to 162
CCCCc1nc2c(N)nc3ccc(OCc4ccccc4)cc3c2n1CCCCNS(=O)(=O)c1ccccc1	204 to 205
Cc1cccc(C=CC=C2SC(=S)N(CC(=O)O)C2=O)c1	220 to 226
N=C(Nc1ccc(C(F)(F)F)cc1)c1ccc(Cl)cc1Cl	108 to 109
O=C(Nc1cc(Cl)c([N+](=O)[O-])cc1O)c1ccccc1	< 250
CNC(=O)c1cccc(CN2CCN(c3nc(C)c(-c4cc(C)n[nH]4)s3)C2=O)c1	259 to 261
CC(C)OP(=O)(OCN1C(=O)c2c(C(C)C)cc(OCC(=O)OCc3ccccc3)cc2S1(=O)=O)OC(C)C	93 to 94

Compound	melting point [°C]
CCC(CC(=O)NC(=O)OC(C)(C)C)Nc1ccccc1 (stereo unspecified)	105 to 106
CO/C(=C\C=C\c1cc2cc(Cl)c(Cl)cc2[nH]1)C(=O)O	249 to 250
Cc1ccc(CN2CCC(c3cc(-c4ccc(Cl)cc4)[nH]n3)CC2)cc1	181 to 183
COc1ccc2nc(NC(=O)c3nc4ccccc4[nH]3)sc2c1	246
CCCCn1ncc(/C=C(\Cc2cc3c(cc2OC)CCO3)C(=O)O)c1-c1ccc(Cl)cc1OCc1c(Cl)cccc1C(=O)O	114 to 116
CNc1nc(-c2cccc(-c3ccc(C)c(C)c3)c2)c2cc(OC)c(OC)cc2n1	149 to 151
Cc1cc(Cl)nc2nc(N3C(=O)c4ccccc4C3CC(=O)N3CCC4(CC3)OCCO4)ccc12 (stereo unspecified)	259 to 262
COc1c(Cl)cccc1NS(=O)(=O)c1cc(S(=O)(=O)Nc2cccc(Cl)c2OC)c2cc(O)ccc2c1	164 to 166
CCSc1cccc2c1CC(=O)N2	143 to 144
CCOC(=O)c1c(CN(CC)CC)nc2sc3c(c2c1-c1ccc(OC)c(OC)c1)CCN=C3	118 to 120
CN(C(=S)c1ccc2nonc2c1)C1CCOCC1	174 to 175
O=C1c2ccccc2C(=O)N1CC(O)COc1cccc2ccccc12 (stereo unspecified)	152 to 154
CCOC(=O)c1cnc(Nc2ccc(N(C)C)cc2)[nH]c1=O	246 to 248
CCOc1ccc(-c2ccc3c(c2)C=C(C(=O)Nc2ccc(CN(C)C4CCOCC4)cc2)CCS3(=O)=O)cc1OCC	224 to 226
CCC(OC)(c1cncc(OCc2ccc3ccccc3c2)c1)c1nccs1 (stereo unspecified)	93 to 95
CCOC(=O)C(C)(NC(=O)CNC=O)C(=O)OCC	98 to 99
OCc1csc(N(c2ccccc2)c2ccccc2)n1	136 to 138
CCC1(CC)Cc2cc(O)c(Cl)c(Cl)c2C1=O	184
CCc1sc2c(c1S(=O)(=O)c1ccc(O)cc1)CC(Cc1ccccc1Cl)NC2 (stereo unspecified)	176

The next lines start with the values.

melting point [°C]	Compound
147 to 149	CC#Cc1ccccc1S(N)(=O)=O
214 to 215	COCCCn1c(CO)c(Cl)c2c3c(c(-c4ccccc4Cl)cc21)C(=O)NC3=O
192 to 193	COc1ccc(S(=O)(=O)N2C(=O)C(c3cc(C)ccc3OC)(N3C[C@H](O)C[C@H]3C(=O)N(C)C)c3cc(Cl)ccc32)c(OC(F)(F)F)c1 (stereo partly specified)
212 to 214	CC1(C)CCC(C)(C)c2cc3c(cc21)CCC=C3Cc1ccc(C(=O)O)cc1
122 to 126	CC1(C)C(=O)C(C)(C)c2cc(CCN3CCN(c4nsc5ccccc45)CC3)ccc21
183 to 185	CC(=O)Oc1cc(C=CC(=O)c2ccccc2)cc([N+](=O)[O-])c1OC(C)=O
166 to 167	COC(=O)CCCc1ccc(NC(=O)[C@@H](Cc2ccc(OCc3ccccc3)cn2)NC(=O)OC(C)(C)C)cc1
235 to 243	Cc1c[nH]c2c([N+](=O)[O-])cccc2c1=O
62.5 to 66.5	CCc1ccc(Cc2c(OC)cccc2OC)cc1
130 to 132	O=CN1CCN(c2nn(-c3ccccc3)c3ccccc23)CC1
175	COCCO[C@@H]1c2ccc3c(nc(C)n3C)c2O[C@H](c2ccccc2)[C@H]1OC(=O)CN(C)C
143 to 144	CS(=O)c1ccc(C2=C(c3cccc(F)c3)C(=O)C(C)(C)O2)cc1 (stereo unspecified)
125 to 127	CC(C#CC1CC(Oc2ccc(F)cc2)C1)N(O)C(N)=O (stereo unspecified)
184 to 186	CC(C)c1cccc(C(C)C)c1NC(=O)NC1CCOc2ccccc2C1 (stereo unspecified)
90 to 91	C=CC(=O)OCCOc1ccc(Cl)c2c1Sc1ccccc1C2
82	Cn1nc(-c2cc(N)c(F)cc2F)c(Cl)c1C(F)(F)F
166 to 167	CCCC(=O)c1cnc2c(C)cccc2c1Nc1ccc(Cl)cc1C
175 to 178	Cc1ccc(-c2ccc(C(=O)Nc3cc4ncc(CN5CCCC5)cc4cc3C)cc2F)cc1
159 to 160	CC(O)=C(C(=O)OCc1ccc([N+](=O)[O-])cc1)N1C(=O)C(NC(=O)COc2ccccc2)C1SS(=O)(=O)c1ccc(C)cc1 (stereo unspecified)
99.2 to 99.8	CC(C)(C)OC(=O)NC1CCN(CC(F)(F)F)CC1

melting point [°C]	Compound
76 to 80	CC1(C)CC(=O)OC1CC(=O)c1ccc(Cl)cc1 (stereo unspecified)
165 to 170	O=Cc1cc(-c2ccccc2)c2ccc3c(-c4ccccc4)cc(C=O)nc3c2n1
97 to 101	O=C1NCCN1CC#CCn1ccnc1
186 to 188	O=C1c2cc3cc(O)ccc3n2CC1CC1CCN(Cc2ccccc2)CC1 (stereo unspecified)
170 to 172	O=C(NC1CCCCCCC1)NS(=O)(=O)c1ccc(CCNC(=O)N2CCCCC2=O)cc1
66	Cc1ccc(-c2cc(C=O)ccn2)cc1
118 to 125	COc1cc2c(cc1OC)C(=O)C(=O)N(CCCN(C)CCCSc1cc(Br)c(N)c(Br)c1)CC2
172	CCOC(=O)CN(c1ccc(Cl)cc1)[C@H]1c2cc(C#N)ccc2OC(C)(C)[C@@H]1O
307	O=c1[nH]c2c3ccccc3ccc2n(C2CC2)c1=O
68 to 70	O=S1(=O)CCC(c2ccc(N3CCN(CC(O)(Cn4cncn4)c4ccc(Cl)cc4Cl)CC3)cc2)CN1 (stereo unspecified)
115 to 117	COc1ccc2cc(CN(C)C(=O)c3ccc(Oc4cc(Cl)cc(Cl)c4)o3)ccc2c1Br
154 to 155	CCC1(C)OC(c2ccc(S(N)(=O)=O)cc2)=C(c2ccco2)C1=O (stereo unspecified)
135 to 137	Cc1ccc(C(O)(Cn2ccnc2)C(C)(C)C)cc1 (stereo unspecified)
56 to 58.5	CCC12CCC(=O)C=C1CCC2=O (single isomer, unassigned; (+))
126 to 128	Cn1c2c(c3cccc(F)c31)C(=O)CCC2
114 to 116	CSc1cc2c(cc1C(F)(F)F)N(C(=O)Nc1cccc(C(=O)NN3CCC(N(C)C)C3)c1)CC2 (stereo unspecified)
54 to 55	O=Cc1cc2ccccc2nc1N1CCN(CC2CCCCC2)CC1
119 to 120	CC1(C)CCC(C)(C)c2cc(CC#Cc3ccc(C(=O)NO)c(O)c3)ccc21
197 to 198	CC(C)C(=O)N[C@H]1C[C@H](C(=O)O)Nc2cc(Cl)cc(Cl)c21 (relative stereo)
